Patent publication US6455504B1, “Pesticidal macrolides” (priority 1999, dated 2002)

How the values were obtained:
[1] = test system: Beet Armyworm (Spodoptera littoralis) larvae; assay: Beet Armyworm Topical Assay; format: in vivo; details: rate 1 ug/larva, 21° C.
Method: B. Beet Armyworm (Spodoptera littoralis) Topical Assay.
An additional measure of the relative insecticidal activities of the formula 1 compounds was generated by using a 1 μg/μL methanol solution of each compound applied at 1 μL per larva of laboratory-reared Spodoptera littoralis, (mean wt of 43 mg). Each compound was applied along the dorsum of each of six larvae. Treated larvae were then held for five days at 21° C., 60% RH in six well plastic culture plates. Larvae were each supplied with a 1 cm^3 of agar-based lepidoptera diet for sustenance during the 5-day post-exposure interval. Percent mortality was determined at the end of a five day period.

[2] = test system: Tobacco Budworm (Heliothis virescens) neonate larvae; assay: Tobacco Budworm Neonate Drench Assay; format: in vivo; details: rate 50 ppm, 27° C.
Method: A. Tobacco Budworm (Heliothis virescens) Neonate Drench Assay.
To compare insecticidal activities of formula 1 compounds in neonate (<6 hr post-eclosion) larval Heliothis virescens, 1 μg/μL acetone solutions of each of the metabolites were first prepared. The acetone solutions were then diluted with Millipore H2O containing 0.025% Triton X-100 surfactant to yield treatments of 25 or 50 ppm. One milliliter of either concentration of each metabolite was then pipetted directly over and onto a 100-mm diameter #1 Whatman qualitative filter paper circle upon which 20 tobacco budworm neonate larvae had been gently placed. Each treated filter paper and its associated larvae was then placed in a 20 mm×100 mm disposable plastic petri plate. One-hour later, a 1 cm^3 portion of agar-based lepidoptera diet (modified Shorey diet, Southland Products, Lake Village, Ariz.) was placed into each plate as a larval food source. The petri plate were held at 27° C. for 24 hr and then percent larval mortality in each treatment was determined.

adult stable fly = assay: In vivo Mouse/Adult Stable Fly (ASF) Assay; parameters: species or system adult stable fly fed on mice (Mus musculus); details: mice dosed 100 mg/kg, orally or topically
Method: On Study Day 0, six, thirty-gram, white laboratory mice (Mus musculus) (8-10 week old, ICR females, Harlan-Sprague-Dawley, Inc., Indianapolis, Ind.) per treatment were dosed with test article or solvent (90% ethyl oleate/10% DMSO), either orally or topically. On Study Day 1, two mice from each treatment were anesthetized with a 0.25 mL intramuscular injection of a combination of 1.0 mL ketamine (Fort Dodge, Ketaset®, ketamine HCl injection, 100 mg/mL) and 1.0 mL xylazine (Bayer, Rompun®, 20 mg/mL injectable) in 4.5 mL sterile water. The anesthetized mice were placed in the fly boxes containing 30 adult stable fly. The anesthetized mice were left in the boxes for up to 60 minutes and the flies allowed to obtain a blood meal undisturbed. After removal from the fly boxes, the unconscious mice were immediately euthanized with CO2. The fly boxes were exposed to a 12-our day/12-hour night cycle for the entire study period. The temperature in the assay room was 68-72° F. and the humidity was 50-60%. These procedures were repeated exactly on Study Days 2 and 3 with the remaining treated mice. Each day the number of dead flies was recorded and fly boxes discarded. Total percent fly mortality was determined for each treatment and compared to fly mortality of continuously fed ASF and ASF fed on solvent treated control mice.

[3] = test system: larval ticks (Amblyomma americannum); assay: In vitro Tick Larval Packet Test (LPT) Assay; details: 24 hours
Method: Titrated levels of experimental compounds were dissolved in a combination of olive oil and trichloroethylene and pipetted onto squares of laboratory filter paper. After allowing about an hour for the trichloroethylene to evaporate, the filter papers were folded in half and two sides secured with clamps, forming packets.
Approximately, 100 larval ticks (Amblyomma americannum) were placed inside each packet and the remaining open side secured with a clamp. The packets were incubated for 24 hours at approximately 72° F. and 95% humidity. Each packet was opened separately and the number of live and dead larvae determined. Percent mortality was determined for each compound.

[4] = test system: larval blowfly (Phormia regina); assay: In vitro Larval Blow Fly Assay; parameters: key to efficacy by visual inspection for larvae movement: A indicates mortality as indicated by absence of larvae movement; N indicates that larvae movement was observed; details: for efficacy by visual inspection for larvae movement: up to 48 hours
Method: Filter inserts were placed individually in 96-well mictrotiter plates. Each insert was saturated with bovine serum combined with titrated levels of experimental compounds starting at 100 ppm. Approximately 30 larval blowfly (Phormia regina) were placed each well and the entire plate sealed. The plates were incubated for up to 48 hours incubation at approximately 25° C. and 75-85% humidity after which efficacy was determined by visual inspection of each well for larvae movement. The results of testing compounds 1 and 8 are as follows (both compounds were active above 5 ppm): […]

[5] = test system: adult stable flies (Stomoxys calcitrans); assay: In vitro Adult Stable Fly Assay
Method: Dental wicks were saturated with serum containing titrated levels of experimental compounds starting at 100 ppm. The dental wicks were placed in petri dishes along with 10 adult stable flies (Stomoxys calcitrans) previously chilled for easier handling. Percent mortality was determined after 24 and 48 hours incubation at approximately 25° C. and 75-85% humidity when compared to a dish containing a wick with control serum only.

CCC=CC1CCCC(OC2CCC(NC)C(C)O2)C(C)C(=O)C2=CC3C(C=CC4CC(OC5OC(C)C(OC)C(OC)C5OC)CC43)C2CC(=O)O1 (stereo not drawn) [Compound 3]
Beet Armyworm Topical (120 hr) Mortality (%) [1]: 100%

CCC=CC1CCCC(OC2CCC(N(C)C)C(C)O2)C(C)C(=O)C2=CC3C(C=C(C)C4CC(OC5OC(C)C(OC)C(OC)C5OC)CC43)C2CC(=O)O1 (stereo not drawn) [Compound 7]
Tobacco Budworm Neonate Drench (24 hr) Mortality (%) [2]: 100%

CCC=CC1CCCC(OC2CCC(N(C)C)C(C)O2)C(C)C(=O)C2=CC3C(C=CC4C(O)C(OC5OC(C)C(OC)C(OC)C5OC)CC43)C2CC(=O)O1 (stereo not drawn) [Compound 8]
% mortality Day 2 (adult stable fly; Study Day 2): 46% | % mortality Day 3 (adult stable fly; Study Day 3): 76% | % mortality Day 1 (adult stable fly; flies fed on Study Day 1): 13% | % mortality Total (adult stable fly; total percent fly mortality): 76% | Percent mortality ([3]; 0.05%/500 ppm): 12.47% | Percent mortality ([3]; 0.1%/1000 ppm): 69.87% | Percent mortality ([3]; 0.5%/5000 ppm): 100% | efficacy by visual inspection for larvae movement ([4]; 0.15 ppm in bovine serum): N | efficacy by visual inspection for larvae movement ([4]; 0.31 ppm in bovine serum): N | efficacy by visual inspection for larvae movement ([4]; 0.62 ppm in bovine serum): N | efficacy by visual inspection for larvae movement ([4]; 1.25 ppm in bovine serum): N | efficacy by visual inspection for larvae movement ([4]; 2.5 ppm in bovine serum): N | efficacy by visual inspection for larvae movement ([4]; 5 ppm in bovine serum): A | activity against larval blowfly ([4]; above 5 ppm (titrated from 100 ppm)): active | % mortality ([5]; 0.1 ppm in serum, 24 hr): 0% | % mortality ([5]; 0.1 ppm in serum, 48 hr): 0% | % mortality ([5]; 0.5 ppm in serum, 24 hr): 10% | % mortality ([5]; 0.5 ppm in serum, 48 hr): 10% | % mortality ([5]; 1.0 ppm in serum, 24 hr): 30% | % mortality ([5]; 1.0 ppm in serum, 48 hr): 80% | % mortality ([5]; 5.0 ppm in serum, 24 hr): 90% | % mortality ([5]; 5.0 ppm in serum, 48 hr): 100%
